{
  "source": "PubChem BioAssay AID1259411",
  "about": "(Chemical Carcinogenesis Research Information System (CCRIS), 2018)",
  "tested_on": "rodent carcinogenicity bioassays, tumor incidence",
  "assay": "CCRIS carcinogenicity studies",
  "in_short": "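NCI-built, expert-reviewed records of carcinogenicity and related test outcomes (mutagenicity, tumor promotion/inhibition) compiled from published and report sources, historical span 1985-2011, not updated.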",
  "note": "Active and inactive are the calls of the source. How the calls were made is not given here.",
  "data": [
    {"smiles": "c1ccc2c(c1)ccc1nc3ccc4ccccc4c3cc12", "values": [
      {"measurement": "carcinogen call", "setting": "Species: MOUSE, Route: DERMAL, Tumor Site: Type of Lesion: INTEGUMENTARY SYSTEM (SKIN)", "value": "active; positive"},
      {"measurement": "carcinogen call", "setting": "Species: MOUSE, Route: SUBCUTANEOUS, Tumor Site: Type of Lesion: LUNG", "value": "active; positive"},
      {"measurement": "carcinogen call", "setting": "Species: MOUSE, Strain/Sex: HSD:ICR(BR)/FEMALE, Route: DERMAL, Dose: 0, 50 NMOL IN 50 µL ACETONE 2/WK FOR 99 WK (STUDY DURATION: 99 WK), Tumor Site: Type of Lesion: SKIN: TUMOR", "value": "active; positive"},
      {"measurement": "carcinogen call", "setting": "Species: RAT, Strain/Sex: OSBORNE-MENDEL/FEMALE, Route: LUNG IMPLANT, Dose: 0, 0.1, 0.3, 1.0 MG IN BEESWAX/TRICAPRYLIN (STUDY DURATION: LIFETIME), Dose: 0, 0.1, 0.3, 1.0 MG IN BEESWAX/TRICAPRYLIN (STUDY DURATION: LIFETIME)", "value": "inactive; negative"}
    ]},
    {"smiles": "Cc1cn([C@H]2C[C@H](N=[N+]=[N-])[C@@H](CO)O2)c(=O)[nH]c1=O", "values": [
      {"measurement": "carcinogen call", "setting": "Species: MOUSE, Strain/Sex: B6C3F1/FEMALE, Route: GAVAGE, Dose: 0, 30, 60, 120 MG/KG BW IN 0.5% METHYLCELLULOSE ADMINISTERED IN TWO EQUAL DOSES DAILY 5 D/WK FOR 105 WK (STUDY DURATION:, Dose: 0, 30, 60, 120 MG/KG BW IN 0.5% METHYLCELLULOSE ADMINISTERED IN TWO EQUAL DOSES DAILY 5 D/WK FOR 105 WK (STUDY DURATION:, Tumor Site: Type of Lesion: VAGINA: SQUAMOUS CELL CARCINOMA, SQUAMOUS CELL PAPILLOMA OR CARCINOMA", "value": "active; positive"},
      {"measurement": "carcinogen call", "setting": "Species: MOUSE, Strain/Sex: B6C3F1/MALE, Route: GAVAGE, Dose: 0, 30, 60, 120 MG/KG BW IN 0.5% METHYLCELLULOSE ADMINISTERED IN TWO EQUAL DOSES DAILY 5 D/WK FOR 105 WK (STUDY DURATION:, Dose: 0, 30, 60, 120 MG/KG BW IN 0.5% METHYLCELLULOSE ADMINISTERED IN TWO EQUAL DOSES DAILY 5 D/WK FOR 105 WK (STUDY DURATION:, Tumor Site: Type of Lesion: KIDNEY: RENAL TUBULE ADENOMA, RENAL TUBULE CARCINOMA, HARDERIAN GLAND: ADENOMA, ADENOMA OR CARCINOMA", "value": "equivocal"},
      {"measurement": "carcinogen call", "setting": "Species: MOUSE, Strain/Sex: CD-1/FEMALE, Route: GAVAGE, Dose: 0, 30, 60, 120 MG/KG/D ON DAY 91 OF STUDY DOSES LOWERED TO 20, 30, 40 MG/KG (STUDY DURATION: 22 MO), Dose: 0, 30, 60, 120 MG/KG/D ON DAY 91 OF STUDY DOSES LOWERED TO 20, 30, 40 MG/KG (STUDY DURATION: 22 MO), Tumor Site: Type of Lesion: VAGINA: SQUAMOUS CELL CARCINOMA", "value": "active; positive"},
      {"measurement": "carcinogen call", "setting": "Species: MOUSE, Strain/Sex: CD-1/FEMALE, Route: INTRAVAGINAL, Dose: 0, 5, 20 MG/ML IN 0.9% SALINE ADMINISTERED AT 0.2 ML 2/D (STUDY DURATION: 24 MO), Dose: 0, 5, 20 MG/ML IN 0.9% SALINE ADMINISTERED AT 0.2 ML 2/D (STUDY DURATION: 24 MO), Tumor Site: Type of Lesion: VAGINA: SQUAMOUS CELL CARCINOMA", "value": "active; positive"},
      {"measurement": "carcinogen call", "setting": "Species: MOUSE, Strain/Sex: CD-1/MALE, Route: GAVAGE, Dose: 0, 30, 60, 120 MG/KG/D ON DAY 91 OF STUDY DOSES LOWERED TO 20, 30, 40 MG/KG/D (STUDY DURATION: 19 MO), Dose: 0, 30, 60, 120 MG/KG/D ON DAY 91 OF STUDY DOSES LOWERED TO 20, 30, 40 MG/KG/D (STUDY DURATION: 19 MO)", "value": "inactive; negative"},
      {"measurement": "carcinogen call", "setting": "Species: Mouse, Strain/Sex: Swiss (CD-1)/Female F1 Generation, Route: In utero, Dose: 0, 50, 100, 200, 300 mg/kg by gavage to F0 generation females 7 d/wk for 29-39 d (delivery day): females mated with unex, Dose: 0, 50, 100, 200, 300 mg/kg by gavage to F0 generation females 7 d/wk for 29-39 d (delivery day): females mated with unex", "value": "inactive; negative; decreased litter size and fertility rates at two highest doses"},
      {"measurement": "carcinogen call", "setting": "Species: Mouse, Strain/Sex: Swiss (CD-1)/Male F1 Generation, Route: In utero, Dose: 0, 50, 100, 200, 300 mg/kg by gavage to F0 generation females 7 d/wk for 29-39 d (delivery day): females mated with unex, Dose: 0, 50, 100, 200, 300 mg/kg by gavage to F0 generation females 7 d/wk for 29-39 d (delivery day): females mated with unex, Tumor Site: Type of Lesion: Lung, Alveolar/Bronchiolar Carcinoma (5/50, 11/50, 6/50, 11/37, 8/32), Alveolar/Bronchiolar adenoma or carcinoma (14/50,, Tumor Site: Type of Lesion: Lung, Alveolar/Bronchiolar Carcinoma (5/50, 11/50, 6/50, 11/37, 8/32), Alveolar/Bronchiolar adenoma or carcinoma (14/50", "value": "active; positive; decreased litter size and fertility rates at two highest doses"},
      {"measurement": "carcinogen call", "setting": "Species: RAT, Strain/Sex: STRAIN-CD/MALE, Route: GAVAGE, Dose: 0, 80, 220, 600 MG/KG/D, HIGH DOSE LOWERED TO 450 MG/KG THEN 300 MG/KG ON DAYS 91 AND 278, RESPECTIVELY (STUDY DURATION:, Dose: 0, 80, 220, 600 MG/KG/D, HIGH DOSE LOWERED TO 450 MG/KG THEN 300 MG/KG ON DAYS 91 AND 278, RESPECTIVELY (STUDY DURATION:", "value": "inactive; negative"}
    ]},
    {"smiles": "CC1CN(N=O)CC(C)N1", "note": "(stereo not drawn)", "values": [
      {"measurement": "carcinogen call", "setting": "Species: RAT, Strain/Sex: F344/FEMALE, Route: ORAL, Dose: 0, 100 MG/L IN DRINKING WATER 5 D/WK FOR 29 WK, STUDY DURATION: 40-50 WK, Dose: 0, 100 MG/L IN DRINKING WATER 5 D/WK FOR 29 WK, STUDY DURATION: 40-50 WK, Tumor Site: Type of Lesion: THYMUS GLAND: LYMPHOMA OR LEUKEMIA, MULTIPLE SITES: LYMPHOMA OR LEUKEMIA", "value": "active; positive"}
    ]},
    {"smiles": "O=C(O)Nc1ccc(-c2ccccc2)cc1", "values": [
      {"measurement": "carcinogen call", "setting": "Species: RAT, Strain/Sex: STRAIN-CD/FEMALE, Route: INTRAPERITONEAL, Dose: 0, 100 UMOL/KG BW 2/WK FOR 6 WK (STUDY DURATION: 62 WK)", "value": "inactive; negative"}
    ]},
    {"smiles": "O[C@H]1C=CC=C[C@@H]1O", "values": [
      {"measurement": "carcinogen call", "setting": "Species: MOUSE, Strain/Sex: SWISS/FEMALE, Route: INTRAPERITONEAL, Dose: 0, 50 UMOL ADMINISTERED AS 3 UNEQUAL DOSES (1/7, 2/7, AND 4/7 OF THE TOTAL DOSE) OVER A 2-WK PERIOD (STUDY DURATION: 28", "value": "inactive; negative"},
      {"measurement": "carcinogen call", "setting": "Species: MOUSE, Strain/Sex: SWISS/MALE, Route: INTRAPERITONEAL, Dose: 0, 50 UMOL ADMINISTERED AS 3 UNEQUAL DOSES (1/7, 2/7, AND 4/7 OF THE TOTAL DOSE) OVER A 2-WK PERIOD (STUDY DURATION: 28", "value": "inactive; negative"}
    ]},
    {"smiles": "Cn1c(=O)c2c(ncn2C)n(C)c1=O", "values": [
      {"measurement": "carcinogen call", "setting": "Species: RAT, Strain/Sex: SPRAGUE-DAWLEY/FEMALE, Route: ORAL, Dose: 0, 200, 430, 930, 2000 MG/L IN DRINKING WATER FOR 24 MO (STUDY DURATION: 2 YR), Dose: 0, 200, 430, 930, 2000 MG/L IN DRINKING WATER FOR 24 MO (STUDY DURATION: 2 YR)", "value": "inactive; negative"},
      {"measurement": "carcinogen call", "setting": "Species: RAT, Strain/Sex: SPRAGUE-DAWLEY/MALE, Route: ORAL, Dose: 0, 200, 430, 930, 2000 MG/L IN DRINKING WATER FOR 24 MO (STUDY DURATION: 2 YR), Dose: 0, 200, 430, 930, 2000 MG/L IN DRINKING WATER FOR 24 MO (STUDY DURATION: 2 YR)", "value": "inactive; negative"},
      {"measurement": "carcinogen call", "setting": "Species: RAT, Strain/Sex: WISTAR/MALE,FEMALE, Route: ORAL, Dose: 0, 0.1, 0.2% SOLN. IN DRINKING WATER FOR 78 WK, Dose: 0, 0.1, 0.2% SOLN. IN DRINKING WATER FOR 78 WK", "value": "inactive; negative"}
    ]},
    {"smiles": "COC(N)=O", "values": [
      {"measurement": "carcinogen call", "setting": "Species: MOUSE, Strain/Sex: B6C3F1/FEMALE, Route: GAVAGE, Dose: 0, 500, 1000 MG/KG IN DISTILLED WATER 5D/WK FOR 103 WK (STUDY DURATION: 105 WK), 1000 MG/KG IN DISTILLED WATER 5D/WK FOR, Dose: 0, 500, 1000 MG/KG IN DISTILLED WATER 5D/WK FOR 103 WK (STUDY DURATION: 105 WK), 1000 MG/KG IN DISTILLED WATER 5D/WK FOR", "value": "inactive; negative"},
      {"measurement": "carcinogen call", "setting": "Species: MOUSE, Strain/Sex: B6C3F1/MALE, Route: GAVAGE, Dose: 0, 500, 1000 MG/KG IN DISTILLED WATER 5D/WK FOR 103 WK (STUDY DURATION: 105 WK);1000 MG/KG IN DISTILLED WATER 5D/WK FOR, Dose: 0, 500, 1000 MG/KG IN DISTILLED WATER 5D/WK FOR 103 WK (STUDY DURATION: 105 WK);1000 MG/KG IN DISTILLED WATER 5D/WK FOR", "value": "inactive; negative"},
      {"measurement": "carcinogen call", "setting": "Species: RAT, Strain/Sex: F344/FEMALE, Route: GAVAGE, Dose: 0, 100, 200 MG/KG IN DISTILLED WATER 5D/WK FOR 103 WK (STUDY DURATION: 105 WK), 400 MG/KG IN DISTILLED WATER 5D/WK FOR 6, Dose: 0, 100, 200 MG/KG IN DISTILLED WATER 5D/WK FOR 103 WK (STUDY DURATION: 105 WK), 400 MG/KG IN DISTILLED WATER 5D/WK FOR 6, Tumor Site: Type of Lesion: LIVER: NEOPLASTIC NODULE, LIVER: NEOPLASTIC NODULE OR HEPATOCELLULAR CARCINOMA, LIVER: HEPATOCELLULAR CARCINOMA, Tumor Site: Type of Lesion: LIVER: NEOPLASTIC NODULE, LIVER: NEOPLASTIC NODULE OR HEPATOCELLULAR CARCINOMA, LIVER: HEPATOCELLULAR CARCINOMA", "value": "active; positive"},
      {"measurement": "carcinogen call", "setting": "Species: RAT, Strain/Sex: F344/MALE, Route: GAVAGE, Dose: 0, 100, 200 MG/KG IN DISTILLED WATER 5D/WK FOR 103 WK (STUDY DURATION: 105 WK), 400 MG/KG IN DISTILLED WATER 5D/WK FOR 6, Dose: 0, 100, 200 MG/KG IN DISTILLED WATER 5D/WK FOR 103 WK (STUDY DURATION: 105 WK), 400 MG/KG IN DISTILLED WATER 5D/WK FOR 6, Tumor Site: Type of Lesion: LIVER: NEOPLASTIC NODULES, LIVER: HEPATOCELLULAR CARCINOMA", "value": "active; positive"}
    ]}
  ]
}
